These results are taken from patent US20210000912A1, “Compositions And Methods For Prophylaxis Or Treatment Of Pain” (Interk Peptide Therapeutics Limited, priority 2017, published 2021).

SMILES strings stand for the structures.

A short description of this data set: Resistance to simulated gastric fluid. Format: in vitro ADME. The procedure: Test 14 Arg peptides consisting of 14 contiguous L- or D-arginine amino acids were tested for resistance to simulated gastric fluid (porcine pepsin in a HCl and NaCl solution) at a pH of 2.01 for a period of 24 hours. Negligible degradation of each peptide was observed by exposure to the simulated gastric fluid over the 24 hour test period.

Take `N=C(N)NCCC[C@H](NC(=O)[C@H](CCCNC(=N)N)NC(=O)[C@H](CCCNC(=N)N)NC(=O)[C@H](CCCNC(=N)N)NC(=O)[C@H](CCCNC(=N)N)NC(=O)[C@H](CCCNC(=N)N)NC(=O)[C@H](CCCNC(=N)N)NC(=O)[C@H](CCCNC(=N)N)NC(=O)[C@H](CCCNC(=N)N)NC(=O)[C@H](CCCNC(=N)N)NC(=O)[C@H](CCCNC(=N)N)NC(=O)[C@H](CCCNC(=N)N)NC(=O)[C@H](CCCNC(=N)N)NC(=O)[C@@H](N)CCCNC(=N)N)C(N)=O` [IK01400, RRRRRRRRRRRRRR-NH2]: under “pig, simulated gastric fluid with porcine pepsin, simulated gastric fluid pH 2.01, 1 hr, read-out: % of intact peptide observed”, the remaining at 1 h is 99.5%. Moreover, the remaining at 4 h (pig, simulated gastric fluid with porcine pepsin, simulated gastric fluid pH 2.01, 4 hrs, read-out: % of intact peptide observed) is 98.5%. Also, the remaining at 24 h (pig, simulated gastric fluid with porcine pepsin, simulated gastric fluid pH 2.01, 24 hrs, read-out: % of intact peptide observed) was 98.2%. For the same compound, the “% of intact peptide observed” value (simulated gastric fluid pH 2.01, time 0) was 98.51%.
